Test [1] addresses Recombinant human TDO comprising amino acids 19-407 (Homo sapiens (Human), UniProt P48775). The test is described as follows: TDO2 enzymatic assay (TDO inhibitory activity). In kind it is biochemical. The conditions noted are these: 15 nM enzyme, 200 μM L-tryptophan, pH7, 30 min pre-incubation, NFK quantified by LCMS; mean values if measured multiple times; read-out: hTDO activity (IC50 in nM). The method, boiled down: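 His-tagged enzyme (15 nM, E. coli-expressed) in pH 7 phosphate buffer with ascorbate, catalase, BSA, Tween 20, 0.6% DMSO; 30 min RT pre-incubation with compound (10 μM–0.5 nM), then 200 μM L-tryptophan for 30 min RT. N′-formylkynurenine quantified by LCMS against deuterated tryptophan; IC50 by four-parameter fit, duplicates.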

Test [2] deals with Recombinant full-length human IDO1 (Homo sapiens (Human), UniProt P14902). Description: IDO1 enzymatic assay (IDO inhibitory activity). The class given is biochemical. The following applies: 2 nM enzyme, 5 μM L-tryptophan, pH6.5, 30 min pre-incubation, NFK quantified by LCMS; mean values if measured multiple times; read-out: hIDO activity (IC50 in nM). The method, boiled down:
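N-His-tagged enzyme from E. coli at 2 nM in 37.5 mM phosphate pH6.5 with ascorbate, methylene blue, catalase; compounds 10 μM–0.5 nM, 0.6% DMSO, pre-incubated 30 min RT, then 5 μM L-tryptophan for 30 min RT. NFK quantified by LCMS against d5-tryptophan; IC50 from duplicate four-parameter fit, means where repeated.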

Molecules are shown by their SMILES.

Recombinant human TDO comprising amino acids 19-407, sequence (P48775 19-406 limits assumed): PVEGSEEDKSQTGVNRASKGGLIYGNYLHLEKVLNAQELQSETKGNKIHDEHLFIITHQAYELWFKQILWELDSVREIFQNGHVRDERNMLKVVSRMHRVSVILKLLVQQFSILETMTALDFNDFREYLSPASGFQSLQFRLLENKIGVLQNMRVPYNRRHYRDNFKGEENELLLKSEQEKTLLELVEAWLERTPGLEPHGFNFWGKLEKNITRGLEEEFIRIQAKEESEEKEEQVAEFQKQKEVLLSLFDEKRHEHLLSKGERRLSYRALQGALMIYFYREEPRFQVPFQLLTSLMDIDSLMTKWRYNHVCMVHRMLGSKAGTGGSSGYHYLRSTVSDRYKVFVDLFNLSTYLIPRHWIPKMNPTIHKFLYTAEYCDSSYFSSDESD
Recombinant full-length human IDO1, sequence (P14902 whole entry): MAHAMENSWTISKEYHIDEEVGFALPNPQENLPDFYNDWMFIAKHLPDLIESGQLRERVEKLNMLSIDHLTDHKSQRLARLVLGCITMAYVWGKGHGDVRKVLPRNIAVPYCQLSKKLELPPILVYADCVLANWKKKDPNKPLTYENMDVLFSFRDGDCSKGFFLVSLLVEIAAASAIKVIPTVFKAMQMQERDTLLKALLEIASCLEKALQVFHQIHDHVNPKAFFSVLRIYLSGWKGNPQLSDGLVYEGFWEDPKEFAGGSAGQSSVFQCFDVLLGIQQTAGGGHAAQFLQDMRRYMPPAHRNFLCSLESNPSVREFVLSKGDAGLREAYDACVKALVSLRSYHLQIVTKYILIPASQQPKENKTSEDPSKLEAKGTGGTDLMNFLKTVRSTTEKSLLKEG

`OC(c1c(C2CC2)sc2cncn12)C1CCC(Cc2ccccc2)C1` (stereo not drawn) [Example 77, (3-Benzyl-cyclopentyl)-(2-cyclopropyl-imidazo[5,1-b]thiazol-3-yl)-methanol]: the half-inhibitory concentration (IC50) (usually the concentration at which inhibition is half-maximal) in test [1] is 3900 nM; in test [2], 91.2 nM.

Turning to `COC1CCCC(CC(O)c2c(C3CC3)sc3cncn23)C1` (stereo not drawn) [Example 114, 1-(2-Cyclopropyl-imidazo[5,1-b]thiazol-3-yl)-2-(3-methoxy-cyclohexyl)-ethanol], the IC50 in test [1] amounted to 1830 nM; in test [2], 40.5 nM.

`CC(C)n1cc(C(O)c2c(C3CC3)sc3cncn23)nn1` (racemic) [Example 194, rac-(2-Cyclopropyl-imidazo[5,1-b]thiazol-3-yl)-(1-isopropyl-1H-[1,2,3]triazol-4-yl)-methanol]: the results for the 50% inhibitory concentration (IC50) in test [1] and in test [2] were more than 10200 nM and 304 nM, respectively.

In the case of `Cc1sc2cncn2c1C(O)CC1CCC(c2ccccc2)C1` (stereo not drawn) [Example 107, 1-(2-Methyl-imidazo[5,1-b]thiazol-3-yl)-2-(3-phenyl-cyclopentyl)-ethanol], the values for the IC50 in test [1] and in test [2] were 1890 nM and 167 nM, respectively.

Consider `CC1CCC(C(O)c2c(C(F)(F)F)sc3cncn23)CC1` (racemic) [Example 115, rac-(4-Methyl-cyclohexyl)-(2-trifluoromethyl-imidazo[5,1-b]thiazol-3-yl)-methanol], for which the IC50 stood at 1960 nM in test [1] and 84.1 nM in test [2].

Regarding `Cc1sc2cncn2c1C(O)CC1CCC(C)(C)CC1` (racemic) [Example 177, rac-2-(4,4-Dimethyl-cyclohexyl)-1-(2-methyl-imidazo[5,1-b]thiazol-3-yl)-ethanol], the IC50 in test [1] is 1950 nM; in test [2] it was 199 nM.

With `Cc1sc2cncn2c1[C@@H](O)CC1CCCCC1` [Example 5a, (S)-2-Cyclohexyl-1-(2-methyl-imidazo[5,1-b]thiazol-3-yl)-ethanol], the IC50 is 375 nM in test [1] and 16.5 nM in test [2].

For the molecule `OC(CC1CCC(C2CCC2)CC1)c1c(C2CC2)sc2cncn12` (racemic) [Example 87, rac-2-(4-Cyclobutyl-cyclohexyl)-1-(2-cyclopropyl-imidazo[5,1-b]thiazol-3-yl)-ethanol], the values for the IC50 in test [1] and in test [2] were 3100 nM and 820 nM, respectively.

On to `O[C@@H](CC1CCCCC1)c1c(C2CC2)sc2cncn12` [Example 2a, (S)-2-Cyclohexyl-1-(2-cyclopropylimidazo[5,1-b]thiazol-3-yl)ethan-1-ol], for which the figures for the 50% inhibitory concentration (IC50) in test [1] and in test [2] were 268 nM and 10.3 nM, respectively.

For `CC1(c2ccccc2)CCC(C(O)c2c(C3CC3)sc3cncn23)C1` (stereo not drawn) [Example 88, (2-Cyclopropyl-imidazo[5,1-b]thiazol-3-yl)-(3-methyl-3-phenyl-cyclopentyl)-methanol], the IC50 stood at 1280 nM in test [1] and 76.7 nM in test [2].

Consider `CC(C)Cc1sc2cncn2c1C(O)C1CCCCC1` (racemic) [Example 98, rac-Cyclohexyl-(2-isobutyl-imidazo[5,1-b]thiazol-3-yl)-methanol], for which the figures for the IC50 in test [1] and in test [2] were 583 nM and 435 nM, respectively.

On to `CC1(C)CCCCC1CC(O)c1c(C2CC2)sc2cncn12` (stereo not drawn) [Example 76, 1-(2-Cycclopropyl-imidazo[5,1-b]thiazol-3-yl)-2-(2,2-dimethyl-cyclohexyl)-ethanol], for which the IC50 was determined as 295 nM in test [1] and 147 nM in test [2].

With `Cc1sc2cncn2c1C(O)[C@H]1C[C@@H]1c1ccccc1` (single isomer, unassigned) [Example 167, rac-(S*)-(2-Methyl-imidazo[5,1-b]thiazol-3-yl)-((1S*,2S*)-2-phenyl-cyclopropyl)-methanol], the IC50 in test [1] was more than 10200 nM; in test [2], 338 nM.

On to `CC(C)C1CCC(CC(O)c2c(C3CC3)sc3cncn23)CC1` (racemic) [Example 85, rac-1-(2-Cyclopropyl-imidazo[5,1-b]thiazol-3-yl)-2-(4-isopropyl-cyclohexyl)-ethanol], for which the half-maximal inhibitory concentration (IC50) in test [1] was found to be 2830 nM; in test [2] it was 511 nM.

As to `CC(C)CC1CCC(C(O)c2c(C3CC3)sc3cncn23)C1` (stereo not drawn) [Example 78, (2-Cyclopropyl-imidazo[5,1-b]thiazol-3-yl)-(3-isobutyl-cyclopentyl)-methanol], the values for the IC50 in test [1] and in test [2] were 2010 nM and 72.3 nM, respectively.

Take `COc1ccc(C(O)c2c(C3CC3)sc3cncn23)cc1` (racemic) [Example 55, rac-(2-Cyclopropyl-imidazo[5,1-b]thiazol-3-yl)-(4-methoxy-phenyl)-methanol]: the results for the half-maximal inhibitory concentration (IC50) in test [1] and in test [2] were 2270 nM and 86.9 nM, respectively.

Consider `O[C@@H](CC1CCCC1)c1c(C2CC2)sc2cncn12` [Example 24a, (S)-2-Cyclopentyl-1-(2-cyclopropyl-imidazo[5,1-b]thiazol-3-yl)-ethanol], for which the 50% inhibitory concentration (IC50) came out at 356 nM in test [1] and 20.5 nM in test [2].

As to `OC(c1ccccc1F)c1c(C2CC2)sc2cncn12` (racemic) [Example 163, rac-(2-Cyclopropyl-imidazo[5,1-b]thiazol-3-yl)-(2-fluoro-phenyl)-methanol], the IC50 in test [1] was found to be 1290 nM; in test [2], 56.7 nM.

As to `CC1([C@H](O)c2c(C3CC3)sc3cncn23)CCCC1` [Example 48a, (S)-(2-Cyclopropyl-imidazo[5,1-b]thiazol-3-yl)-(1-methyl-cyclopentyl)-methanol], the IC50 in test [1] was 42.5 nM; in test [2], 4.37 nM.

Turning to `C=Cc1sc2cncn2c1C(O)CC1CCCCC1` (stereo not drawn) [Example 97, 2-Cyclohexyl-1-(2-vinyl-imidazo[5,1-b]thiazol-3-yl)-ethanol], the IC50 in test [1] is 62.6 nM; in test [2], 10.5 nM.

Regarding `OC(c1ccc(C(F)(F)F)cc1)c1c(C2CC2)sc2cncn12` (racemic) [Example 159, rac-(2-Cyclopropyl-imidazo[5,1-b]thiazol-3-yl)-(4-trifluoromethyl-phenyl)-methanol], the figures for the IC50 in test [1] and in test [2] were 2700 nM and 305 nM, respectively.

For `OC(c1cn(C2CCCCC2)nn1)c1c(C2CC2)sc2cncn12` (racemic) [Example 197, rac-(1-Cyclohexyl-1H-[1,2,3]triazol-4-yl)-(2-cyclopropyl-imidazo[5,1-b]thiazol-3-yl)-methanol], the IC50 in test [1] is more than 10200 nM; in test [2], 287 nM.

For the molecule `CC(C)(C)C1CCC(C(O)c2c(C3CC3)sc3cncn23)CC1` (racemic) [Example 86, rac-(4-tert-Butyl-cyclohexyl)-(2-cyclopropyl-imidazo[5,1-b]thiazol-3-yl)-methanol], the IC50 in test [1] turned out to be 2780 nM; in test [2], 511 nM.

Consider `OC(c1c(C2CC2)sc2cncn12)C1CCC2(CCCC2)CC1` (racemic) [Example 70, rac-(2-Cyclopropyl-imidazo[5,1-b]thiazol-3-yl)-spiro[4.5]dec-8-yl-methanol], for which the figures for the IC50 in test [1] and in test [2] were 746 nM and 72.1 nM, respectively.

Turning to `CCC1CCCC1C(O)c1c(C2CC2)sc2cncn12` (stereo not drawn) [Example 123, (2-Cyclopropyl-imidazo[5,1-b]thiazol-3-yl)-(2-ethyl-cyclopentyl)-methanol], the half-inhibitory concentration (IC50) in test [1] came to 228 nM; in test [2] it was 29.4 nM.

As for `O[C@@H](CC1CCCCC1)c1c(C2CCC2)sc2cncn12` [Example 8a, (S)-1-(2-Cyclobutylimidazo[5,1-b]thiazol-3-yl)-2-cyclohexylethan-1-ol], the IC50 in test [1] was found to be 129 nM; in test [2], 72.3 nM.

On to `OC(c1c(C2CCC2)sc2cncn12)C1CCCCC1` (racemic) [Example 7, rac-(2-Cyclobutylimidazo[5,1-b]thiazol-3-yl)(cyclohexyl)methanol], for which the IC50 in test [1] came out at 324 nM; in test [2] it was 94.2 nM.

For the molecule `OC(c1c(C2CC2)sc2cncn12)C1CCC(C2CCC2)CC1` (racemic) [Example 103, rac-(4-Cyclobutyl-cyclohexyl)-(2-cyclopropyl-imidazo[5,1-b]thiazol-3-yl)-methanol], the IC50 was 1780 nM in test [1] and 70.1 nM in test [2].

As for `OC(c1c(C2CC2)sc2cncn12)C1CCCCC1` (racemic) [Example 1, rac-Cyclohexyl(2-cyclopropylimidazo[5,1-b]thiazol-3-yl)methanol], the IC50 in test [1] was 288 nM; in test [2], 15.1 nM.

Take `CC1CCCC(C(O)c2c(C3CC3)sc3cncn23)C1` (stereo not drawn) [Example 27, (2-Cyclopropyl-imidazo[5,1-b]thiazol-3-yl)-(3-methyl-cyclohexyl)-methanol]: the results for the IC50 in test [1] and in test [2] were 384 nM and 17.2 nM, respectively.

Regarding `OC(CC1CCCC1)c1c(C(F)(F)F)sc2cncn12` (racemic) [Example 111, rac-2-Cyclopentyl-1-(2-trifluoromethyl-imidazo[5,1-b]thiazol-3-yl)-ethanol], the figures for the IC50 in test [1] and in test [2] were 2430 nM and 101 nM, respectively.

As to `CC1(C)CCC(CC(O)c2c(C(F)(F)F)sc3cncn23)CC1` (racemic) [Example 118, rac-2-(4,4-Dimethyl-cyclohexyl)-1-(2-trifluoromethyl-imidazo[5,1-b]thiazol-3-yl)-ethanol], the values for the half-maximal inhibitory concentration (IC50) in test [1] and in test [2] were 7280 nM and 447 nM, respectively.

For the molecule `O[C@H](c1c(C2CC2)sc2cncn12)[C@H]1CC[C@H](c2ccccc2)CC1` [Example 73a, (S)-(2-Cyclopropyl-imidazo[5,1-b]thiazol-3-yl)-(trans-4-phenyl-cyclohexyl)-methanol], the 50% inhibitory concentration (IC50) in test [1] turned out to be 2300 nM; in test [2], 6.45 nM.

For the origin of these results see patent publication US11267824B2, “Inhibitors of indoleamine 2,3-dioxygenase and/or tryptophan 2,3-dioxygenase” (IDORSIA PHARMACEUTICALS LTD, priority 2017, dated 2022).
